{"source": "patent US10729664B2", "about": "“Permanently charged sodium and calcium channel blockers as anti-inflammatory agents” (Children's Medical Center Corporation, priority 2009, dated 2020)", "key": {"[1]": {"tested_on": "voltage-dependent calcium channels", "experiment": "Whole-cell recording of currents through voltage-activated calcium channels in a dissociated dorsal root ganglion neuron", "assay_type": "cell-based, rat", "experimental": "The traces show currents through voltage-activated calcium channels in a dissociated rat dorsal root ganglion neuron, recorded in whole-cell mode. Current was carried by 2 mM Ba^2+ on a background of 155 mM N-methyl-D-glucamine (to eliminate Na current), with an internal CsCl-based solution. Calcium channels were opened by a voltage step from −80 mV to −20 mV. When channels are opened, inward-going current is carried by Ba^2+ ions flowing into the cell."}, "rat hindpaw": {"tested_on": "rat hindpaw", "experiment": "Edema elicited by injection of complete Freund's adjuvant (CFA) in the rat hindpaw, total hindpaw volume by plethysmography", "assay_type": "in vivo", "settings": "intravenous QX-314 0.4 mg/kg", "experimental": "FIG. 1 is a graph showing the effect of intravenous QX-314 (0.4 mg/kg) on the edema elicited by injection of complete Freund's adjuvant (CFA) in the rat hindpaw determined by measuring the total volume of the hindpaw by plethysmography. The degree of swelling produced by injection of CFA is reduced by administration of QX-314 reflecting reduction in neurogenic edema resulting from the blockade of nociceptors by QX314."}}, "note": "Entries after “also recorded” stand apart in the source; their conditions may differ."}
{"smiles": "COc1ccc(CC[N+](C)(C)CCCC(C#N)(c2ccc(OC)c(OC)c2)C(C)C)cc1OC", "note": "(centres unmarked) [N-methyl-verapamil]", "values": [{"measurement": "effect on calcium channel currents, N-methyl-verapamil alone", "setting": "[1]; 300 μM N-methyl-verapamil alone, before and 3 minutes after exposure, step from −80 mV to −20 mV, 2 mM Ba2+", "value": "weak, transient effects"}, {"measurement": "inhibition of voltage-dependent calcium channel current, N-methyl-verapamil applied in the presence of capsaicin", "setting": "[1]; 300 μM N-methyl-verapamil in the presence of 1 μM capsaicin to open TRPV1 channels, 3 minutes after exposure and after washout", "value": "long-lasting inhibition; also recorded: inhibition of calcium channel currents that persists after washout; also recorded: inhibition of voltage-dependent calcium channel current"}]}
{"smiles": "CC[N+](CC)(CC)CC(=O)Nc1c(C)cccc1C", "note": "[QX-314]", "values": [{"measurement": "degree of swelling produced by injection of CFA (total volume of the hindpaw)", "setting": "rat hindpaw; CFA-injected hindpaw", "value": "reduced"}, {"measurement": "effect on hindpaw volume of QX-314 by itself", "setting": "rat hindpaw; by itself (no CFA), compared with saline", "value": "no effect different from administration of saline"}]}
{"smiles": "COc1cc(CNC(=O)CCCC/C=C/C(C)C)ccc1O", "note": "[capsaicin, reference compound]", "values": [{"measurement": "effect on calcium channel currents, capsaicin alone", "setting": "[1]; 1 μM capsaicin alone, before and 3 minutes after exposure, step from −80 mV to −20 mV, 2 mM Ba2+", "value": "weak, transient effects"}]}
